Source: ChEMBL document CHEMBL1148912, “New diterpenoids from the marine mangrove Bruguiera gymnorrhiza” (J Nat Prod, 2004)
≈ marks a conversion by molar mass, not a printed value.

Legend:
[1] = Growth inhibition of mouse L929 cells; type: cell-based
K562 = experiment: Growth inhibition of human K562 cells; type: functional
HeLa = experiment: Cytotoxicity against human HeLa cells; type: functional

Row | Structure (SMILES) | GI50 [1] [µg/mL] | GI50 (K562) [µg/mL] | CC50 (HeLa) [µg/mL]
1 | C=C1C[C@]23CC[C@@H]4[C@](C)(CO)CCC[C@@]4(C)[C@@H]2CC[C@@]1(O)C3 | 50 (≈ 164 µM) | 50 (≈ 164 µM) | 50 (≈ 164 µM)
2 | COC(=O)[C@]1(C)CCC[C@@]2(C)C3=CC[C@H]4C[C@]3(CC[C@H]12)C[C@]4(O)CO | 41.9 (≈ 120 µM) | 26.7 (≈ 76.6 µM) | 38.7 (≈ 111 µM)
3 | C[C@@]12CCC[C@@](C)(C=O)[C@H]1CC[C@@]13C[C@@H](CC[C@H]12)[C@@](O)(CO)C3 | 50 (≈ 156 µM) | 50 (≈ 156 µM) | 50 (≈ 156 µM)
4 | CC(=O)O[C@H]1C(=O)[C@@]2(C)[C@H]([C@H](OC(=O)c3ccccc3)[C@]3(O)C[C@H](OC(=O)[C@H](O)[C@@H](NC(=O)c4ccccc4)c4ccccc4)C(C)=C1C3(C)C)[C@]1(OC(C)=O)CO[C@@H]1C[C@@H]2O [PACLITAXEL] | 0.1 (≈ 0.117 µM) | 0.01 (≈ 0.0117 µM) | 0.01 (≈ 0.0117 µM)
5 | C[C@@]12CCC[C@@](C)(C(=O)O)[C@H]1CC[C@@]13C[C@H](CO)[C@@H](CC[C@H]12)C3 | 42.4 (≈ 132 µM) | 32.8 (≈ 102 µM) | 43 (≈ 134 µM)
6 | C=C1C[C@]23CC[C@H]4[C@@](C)(CCC[C@@]4(C)C=O)[C@@H]2CC[C@@]1(O)C3 | 11.5 (≈ 38 µM) | 10.5 (≈ 34.7 µM) | 42.3 (≈ 140 µM)
7 | C[C@@]1(CO)CCC[C@]2(C)[C@@H]1CC[C@@]13C[C@H](CO)[C@@H](CC[C@H]12)C3 | 12.8 (≈ 41.8 µM) | 13.6 (≈ 44.4 µM) | 35.7 (≈ 116 µM)
8 | C=C1C[C@@]23CC[C@@H]4[C@](C)(CO)CCC[C@@]4(C)[C@@H]2CC[C@H]1C3 | 18.2 (≈ 63.1 µM) | 6.8 (≈ 23.6 µM) | 32.8 (≈ 114 µM)
9 | C[C@@]12CCC[C@@](C)(C=O)[C@H]1CC[C@@]13CC(=O)[C@](CO)(CC[C@H]12)C3 | 45.4 (≈ 143 µM) | 50 (≈ 157 µM) | 37.7 (≈ 118 µM)
10 | COC(=O)[C@]1(C)CCC[C@@]2(C)[C@@H]3CC[C@H]4C[C@]3(CC[C@@H]21)C[C@]4(O)CO | 39.5 (≈ 113 µM) | 27.7 (≈ 79 µM) | 40.5 (≈ 116 µM)
11 | C[C@@]12CCC[C@@](C)(C=O)[C@H]1CC[C@]13C[C@](O)(CC[C@H]12)[C@](O)(CCl)C3 | 50 (≈ 141 µM) | 29.2 (≈ 82.3 µM) | 38.2 (≈ 108 µM)
